The assay relates to TMD8. The experiment in a line: CCK-8 tumor cell proliferation, TMD8. The conditions noted are these: Table 13, designed based on BCR-ABL inhibitors; 72 h. The arrangement: species or system Human. How it is done:
The tumor cells used herein were cultured in a cell culture medium listed in table 4 at 37° C. in an incubator with 5% CO2. Prior to experimentation, all cells used were correctly identified by STR profiling, and tested negative for mycoplasma through routine screenings.
IC50 values of the compounds of the present disclosure (including the compounds in Tables 1 and 3, and compounds of examples) were measured using the Meilun Cell Counting Kit-8 kit from Dalian Meilun Biotech Co., Ltd. Assay details are as follows: tumor cells were seeded in a 96-well plate at a density listed in Table 5. After 24 h, 100 μL of the inoculated cells were treated with 0.5 μL of the compounds of the present disclosure (including the compounds in Tables 1 and 3, and compounds of examples) at 10 different successively decreasing concentrations (starting at the highest concentration of 10 μM; 5-fold serial dilutions). After the cells were treated with the compounds of the present disclosure for a period of time, the cell viability detection reagent was added to the culture medium for cell viability assessment according to the instructions provided with the CCK-8 kit. […] The growth inhibition of the compounds of the present disclosure on cells was plotted by Prism Graphpad software, and the IC50 values of the compounds of the present disclosure were calculated therefrom.

The record followed here is patent US20260199323A1, “LIGAND COMPOUNDS FOR E3 UBIQUITIN LIGASE, PROTEIN DEGRADERS DEVELOPED ON BASIS OF LIGAND COMPOUNDS, AND USES THEREOF” (GLUETACS THERAPEUTICS (SHANGHAI) CO., LTD., priority 2021, published 2026).

For `Cc1ccc(NC(=O)c2ccc(CN(C)Cc3ccc4c(c3)CN(C3CCC(=O)NC3=O)C4=O)cc2)cc1Nc1nccc(-c2cccnc2)n1` (stereo not shown) [GT-03990, 4-((((2-(2,6-dioxopiperidin-3-yl)-1-oxoisoindolin-5-yl)methyl)(methyl)amino)methyl)-N-(4-methyl-3-((4-(pyridin-3-yl)pyrimidin-2-yl)amino)phenyl)benzamide], the “IC50 for inhibiting the proliferation of tumor cells, TMD8” value is recorded as “A+”.
